Measured values taken from ChEMBL document CHEMBL2346657, “Synthesis of novel 2-amino-4-(5'-substituted 2'-phenyl-1H-indol-3'-yl)-6-aryl-4H-pyran-3-carbonitrile derivatives as antimicrobial and antioxidant agents” (2013).
The source made the active and inactive calls. How the calls were made is not given here.

How the values were obtained:
Format in all cases: functional
Klebsiella pneumoniae [1] = assay: Antimicrobial activity against Klebsiella pneumoniae NCTC 13368 at 500 ug/ml after 24 hrs by cup plate method; conditions: NCTC 13368, 24 h, read-out: IZ
Aspergillus oryzae [2] = assay: Antimicrobial activity against Aspergillus oryzae MTCC 3567 at 1000 ug/ml after 72 hrs by cup plate method; conditions: MTCC 3567, 72 h, read-out: IZ
Escherichia coli [3] = assay: Antimicrobial activity against Escherichia coli MTCC 723 at 1000 ug/ml after 24 hrs by cup plate method; conditions: MTCC 723, 24 h, read-out: IZ
Aspergillus flavus [4] = assay: Antimicrobial activity against Aspergillus flavus MTCC 1973 at 750 ug/ml after 72 hrs by cup plate method; conditions: MTCC 1973, 72 h, read-out: IZ
Aspergillus flavus [5] = assay: Antimicrobial activity against Aspergillus flavus MTCC 1973 at 500 ug/ml after 72 hrs by cup plate method; conditions: MTCC 1973, 72 h, read-out: IZ
Pseudomonas aeruginosa [6] = assay: Antimicrobial activity against Pseudomonas aeruginosa MTCC 1688 at 1000 ug/ml after 24 hrs by cup plate method; conditions: MTCC 1688, 24 h, read-out: IZ
Escherichia coli [7] = assay: Antimicrobial activity against Escherichia coli MTCC 723 at 500 ug/ml after 24 hrs by cup plate method; conditions: MTCC 723, 24 h, read-out: IZ
Klebsiella pneumoniae [8] = assay: Antimicrobial activity against Klebsiella pneumoniae NCTC 13368 at 1000 ug/ml after 24 hrs by cup plate method; conditions: NCTC 13368, 24 h, read-out: IZ
Escherichia coli [9] = assay: Antimicrobial activity against Escherichia coli MTCC 723 at 750 ug/ml after 24 hrs by cup plate method; conditions: MTCC 723, 24 h, read-out: IZ
Aspergillus niger [10] = assay: Antimicrobial activity against Aspergillus niger MTCC 281 at 500 ug/ml after 72 hrs by cup plate method; conditions: MTCC 281, 72 h, read-out: IZ
Aspergillus oryzae [11] = assay: Antimicrobial activity against Aspergillus oryzae MTCC 3567 at 750 ug/ml after 72 hrs by cup plate method; conditions: MTCC 3567, 72 h, read-out: IZ
Aspergillus terreus [12] = assay: Antimicrobial activity against Aspergillus terreus MTCC 1782 at 500 ug/ml after 72 hrs by cup plate method; conditions: MTCC 1782, 72 h, read-out: IZ
Aspergillus oryzae [13] = assay: Antimicrobial activity against Aspergillus oryzae MTCC 3567 at 500 ug/ml after 72 hrs by cup plate method; conditions: MTCC 3567, 72 h, read-out: IZ
Aspergillus terreus [14] = assay: Antimicrobial activity against Aspergillus terreus MTCC 1782 at 750 ug/ml after 72 hrs by cup plate method; conditions: MTCC 1782, 72 h, read-out: IZ
Klebsiella pneumoniae [15] = assay: Antimicrobial activity against Klebsiella pneumoniae NCTC 13368 at 750 ug/ml after 24 hrs by cup plate method; conditions: NCTC 13368, 24 h, read-out: IZ
Aspergillus niger [16] = assay: Antimicrobial activity against Aspergillus niger MTCC 281 at 750 ug/ml after 72 hrs by cup plate method; conditions: MTCC 281, 72 h, read-out: IZ
Pseudomonas aeruginosa [17] = assay: Antimicrobial activity against Pseudomonas aeruginosa MTCC 1688 at 750 ug/ml after 24 hrs by cup plate method; conditions: MTCC 1688, 24 h, read-out: IZ
Pseudomonas aeruginosa [18] = assay: Antimicrobial activity against Pseudomonas aeruginosa MTCC 1688 at 500 ug/ml after 24 hrs by cup plate method; conditions: MTCC 1688, 24 h, read-out: IZ
Aspergillus flavus [19] = assay: Antimicrobial activity against Aspergillus flavus MTCC 1973 at 1000 ug/ml after 72 hrs by cup plate method; conditions: MTCC 1973, 72 h, read-out: IZ
Aspergillus terreus [20] = assay: Antimicrobial activity against Aspergillus terreus MTCC 1782 at 1000 ug/ml after 72 hrs by cup plate method; conditions: MTCC 1782, 72 h, read-out: IZ
[21] = Antioxidant activity assessed as metal chelating activity by measuring inhibition of ferrozine-Fe2+ complex formation at 25 to 100 ug/ml
Aspergillus niger [22] = assay: Antimicrobial activity against Aspergillus niger MTCC 281 at 1000 ug/ml after 72 hrs by cup plate method; conditions: MTCC 281, 72 h, read-out: IZ
Staphylococcus aureus [23] = assay: Antimicrobial activity against Staphylococcus aureus ATCC 29513 at 1000 ug/ml after 24 hrs by cup plate method; conditions: ATCC 29513, 24 h, read-out: IZ
Staphylococcus aureus [24] = assay: Antimicrobial activity against Staphylococcus aureus ATCC 29513 at 500 ug/ml after 24 hrs by cup plate method; conditions: ATCC 29513, 24 h, read-out: IZ
Staphylococcus aureus [25] = assay: Antimicrobial activity against Staphylococcus aureus ATCC 29513 at 750 ug/ml after 24 hrs by cup plate method; conditions: ATCC 29513, 24 h, read-out: IZ

| Structure (SMILES) | zone of inhibition at 500 µg/mL (Klebsiella pneumoniae [1]) | zone of inhibition at 1000 µg/mL (Aspergillus oryzae [2]) | zone of inhibition at 1000 µg/mL (Escherichia coli [3]) | zone of inhibition at 750 µg/mL (Aspergillus flavus [4]) | zone of inhibition at 500 µg/mL (Aspergillus flavus [5]) | zone of inhibition at 1000 µg/mL (Pseudomonas aeruginosa [6]) | zone of inhibition at 500 µg/mL (Escherichia coli [7]) | zone of inhibition at 1000 µg/mL (Klebsiella pneumoniae [8]) | zone of inhibition at 750 µg/mL (Escherichia coli [9]) | zone of inhibition at 500 µg/mL (Aspergillus niger [10]) | zone of inhibition at 750 µg/mL (Aspergillus oryzae [11]) | zone of inhibition at 500 µg/mL (Aspergillus terreus [12]) | zone of inhibition at 500 µg/mL (Aspergillus oryzae [13]) | zone of inhibition at 750 µg/mL (Aspergillus terreus [14]) | zone of inhibition at 750 µg/mL (Klebsiella pneumoniae [15]) | zone of inhibition at 750 µg/mL (Aspergillus niger [16]) | zone of inhibition at 750 µg/mL (Pseudomonas aeruginosa [17]) | zone of inhibition at 500 µg/mL (Pseudomonas aeruginosa [18]) | zone of inhibition at 1000 µg/mL (Aspergillus flavus [19]) | zone of inhibition at 1000 µg/mL (Aspergillus terreus [20]) | further results |
| --- | --- | --- | --- | --- | --- | --- | --- | --- | --- | --- | --- | --- | --- | --- | --- | --- | --- | --- | --- | --- | --- |
| Cc1ccc2[nH]c(-c3ccccc3)c(C3C=C(c4ccc(Cl)cc4)Oc4[nH]c(=O)nc(N)c43)c2c1 (stereo not given) | 4 mm | 8 mm | 3 mm | 5 mm | 8 mm | 0 mm | 10 mm | 3 mm | 8 mm | 5 mm | 8 mm | 7 mm | 8 mm | 6 mm | 3 mm | 4 mm | 0 mm | 0 mm | 4 mm | 5 mm | Activity [21]: Active; zone of inhibition at 1000 µg/mL (Aspergillus niger [22]): 6 mm; zone of inhibition at 1000 µg/mL (Staphylococcus aureus [23]): 7 mm; zone of inhibition at 500 µg/mL (Staphylococcus aureus [24]): 5 mm; zone of inhibition at 750 µg/mL (Staphylococcus aureus [25]): 5 mm |
| Cc1ccc(C2=CC(c3c(-c4ccccc4)[nH]c4ccc(Cl)cc34)C(C#N)=C(N)O2)cc1 (stereo not given) | 10 mm | 2 mm | 10 mm | 5 mm | 5 mm | 3 mm | 10 mm | 10 mm | 10 mm | 4 mm | 8 mm | 5 mm | 8 mm | 3 mm | 10 mm | 3 mm | 6 mm | 6 mm | 5 mm | 3 mm | Activity [21]: Active; zone of inhibition at 1000 µg/mL (Aspergillus niger [22]): 3 mm; zone of inhibition at 1000 µg/mL (Staphylococcus aureus [23]): 6 mm; zone of inhibition at 500 µg/mL (Staphylococcus aureus [24]): 8 mm; zone of inhibition at 750 µg/mL (Staphylococcus aureus [25]): 5 mm |
| Nc1nc(=S)[nH]c2c1C(c1c(-c3ccccc3)[nH]c3ccccc13)C=C(c1ccc(Cl)cc1)O2 (stereo not given) | 8 mm | 8 mm | 10 mm | 12 mm | 12 mm | 10 mm | 10 mm | 5 mm | 10 mm | 3 mm | 8 mm | 8 mm | 9 mm | 5 mm | 8 mm | 3 mm | 10 mm | 10 mm | 5 mm | 5 mm | Activity [21]: Active; zone of inhibition at 1000 µg/mL (Aspergillus niger [22]): 5 mm; zone of inhibition at 1000 µg/mL (Staphylococcus aureus [23]): 11 mm; zone of inhibition at 500 µg/mL (Staphylococcus aureus [24]): 10 mm; zone of inhibition at 750 µg/mL (Staphylococcus aureus [25]): 10 mm |
| Cc1ccc(C2=CC(c3c(-c4ccccc4)[nH]c4ccc(C)cc34)c3c(N)nc(=O)[nH]c3O2)cc1 (stereo not given) | 10 mm | 0 mm | 14 mm | 2 mm | 2 mm | 10 mm | 13 mm | 10 mm | 13 mm | 10 mm | 0 mm | 9 mm | 0 mm | 9 mm | 10 mm | 10 mm | 10 mm | 10 mm | 2 mm | 9 mm | Activity [21]: Active; zone of inhibition at 1000 µg/mL (Aspergillus niger [22]): 10 mm; zone of inhibition at 1000 µg/mL (Staphylococcus aureus [23]): 2 mm; zone of inhibition at 500 µg/mL (Staphylococcus aureus [24]): 8 mm; zone of inhibition at 750 µg/mL (Staphylococcus aureus [25]): 5 mm |
| Cc1ccc(C2=CC(c3c(-c4ccccc4)[nH]c4ccc(C)cc34)c3c(nc4oc(=O)c(C#N)c(N)c4c3N)O2)cc1 (stereo not given) | 11 mm | 10 mm | 10 mm | 12 mm | 12 mm | 4 mm | 10 mm | 10 mm | 10 mm | 0 mm | 11 mm | 9 mm | 10 mm | 4 mm | 10 mm | 0 mm | 6 mm | 9 mm | 13 mm | 4 mm | Activity [21]: Active; zone of inhibition at 1000 µg/mL (Aspergillus niger [22]): 0 mm; zone of inhibition at 1000 µg/mL (Staphylococcus aureus [23]): 0 mm; zone of inhibition at 500 µg/mL (Staphylococcus aureus [24]): 3 mm; zone of inhibition at 750 µg/mL (Staphylococcus aureus [25]): 3 mm |
| Cc1ccc2[nH]c(-c3ccccc3)c(C3C=C(c4ccc(Cl)cc4)Oc4nc[nH]c(=O)c43)c2c1 (stereo not given) | 5 mm | 8 mm | 8 mm | 5 mm | 5 mm | 4 mm | 8 mm | 5 mm | 8 mm | 10 mm | 8 mm | 6 mm | 8 mm | 6 mm | 5 mm | 10 mm | 4 mm | 4 mm | 5 mm | 6 mm | Activity [21]: Active; zone of inhibition at 1000 µg/mL (Aspergillus niger [22]): 11 mm; zone of inhibition at 1000 µg/mL (Staphylococcus aureus [23]): 10 mm; zone of inhibition at 500 µg/mL (Staphylococcus aureus [24]): 10 mm; zone of inhibition at 750 µg/mL (Staphylococcus aureus [25]): 10 mm |
| Nc1nc(=O)[nH]c2c1C(c1c(-c3ccccc3)[nH]c3ccccc13)C=C(c1ccccc1)O2 (stereo not given) | 10 mm | 10 mm | 5 mm | 9 mm | 10 mm | 13 mm | 10 mm | 10 mm | 8 mm | 5 mm | 10 mm | 6 mm | 10 mm | 4 mm | 10 mm | 5 mm | 12 mm | 12 mm | 9 mm | 3 mm | Activity [21]: Active; zone of inhibition at 1000 µg/mL (Aspergillus niger [22]): 3 mm; zone of inhibition at 1000 µg/mL (Staphylococcus aureus [23]): 5 mm; zone of inhibition at 500 µg/mL (Staphylococcus aureus [24]): 10 mm; zone of inhibition at 750 µg/mL (Staphylococcus aureus [25]): 10 mm |
| Cc1ccc(C2=CC(c3c(-c4ccccc4)[nH]c4ccccc34)c3c(N)n[nH]c3O2)cc1 (stereo not given) | 4 mm | 7 mm | 8 mm | 2 mm | 3 mm | 6 mm | 8 mm | 2 mm | 8 mm | 9 mm | 7 mm | 4 mm | 7 mm | 4 mm | 3 mm | 9 mm | 6 mm | 8 mm | 8 mm | 4 mm | Activity [21]: Active; zone of inhibition at 1000 µg/mL (Aspergillus niger [22]): 5 mm; zone of inhibition at 1000 µg/mL (Staphylococcus aureus [23]): 3 mm; zone of inhibition at 500 µg/mL (Staphylococcus aureus [24]): 5 mm; zone of inhibition at 750 µg/mL (Staphylococcus aureus [25]): 3 mm |
